Experimental data from patent publication US10113189B2, “Isolation and characterization of a novel pythium omega 3 desaturase with specificity to all omega 6 fatty acids longer than 18 carbon chains” (priority 2006, dated 2018).

Assays:
[1] = test system: ω-3 desaturase from Pythium irregulare; format: cell-based, S. cerevisiae; conditions: for desaturation by ω-3 desaturase from Pythium (in words): expression in yeast, exogenously supplied ω-6 fatty acids; for Conversion (%) / Product (%): yeast transformant pYES2-O3; for Conversion (%): conversion of ω-6 substrate into the corresponding ω-3 product; for Product (%): ω-3 product (ALA, SDA, ETA, EPA, DHA) of the fed substrate, 100 μM, 16° C., 4 days, GC
Method: (§1) The plasmids containing the full length O3 genes in the yeast expression vector pYES2.1/V5-His-TOPO were transformed into yeast S. cerevisiae. The positive transformants were selected for uracil auxotrophy on DOB-U agar plates. To characterize the ω-3 desaturase enzyme activity, positive clones and the control (yeast with pYES2.1 vector) were cultured overnight in DOB-U liquid medium at 28° C. and then grown in induction medium (DOB-U+Gal+Raf) containing 100 μM of various exogenously supplied fatty acid substrates at 16° C. for 4 days. The whole yeast cells expressing Pythium ω-3 genes were harvested by centrifugation and washed twice with distilled water. Then the yeast cells were directly transmethylated with methanolic HCl (3N) at 80° C. for 1 hour. The resultant methyl esters were extracted with hexane and analyzed by gas chromatography (GC). GC was carried out as described in WO 2005/083053.

[2] = test system: control yeast pYES2 (yeast with pYES2.1 vector); assay: Production of ω-3 fatty acids from exogenous ω-6 fatty acids in the control yeast pYES2; format: cell-based, S. cerevisiae; conditions: ω-3 product (ALA, SDA, ETA, EPA, DHA) of the fed substrate, GC
Method: as §1

SMILES | desaturation by ω-3 desaturase from Pythium (in words) [1] | Conversion (%) [1] | Product (%) [1] | Product (%) [2]
CCCCC/C=C\C/C=C\C/C=C\CCCCC(=O)O [GLA, γ-linolenic acid] | not able to desaturase | 0% | 0% | 0%
CCCCC/C=C\C/C=C\C/C=C\CCCCCCC(=O)O [DGLA, dihomo-γ-linolenic acid] | desaturates | 9.65% | 1.90% | 0%
CC/C=C\C/C=C\C/C=C\C/C=C\C/C=C\CCCCCC(=O)O [DPA, docosapentaenoic acid] | – | 2.01% | 0.20% | 0.03%
CCCCC/C=C\C/C=C\CCCCCCCC(=O)O [LA, linoleic acid] | not able to desaturase | 0% | 0% | 0%
